Patent publication US10640495B2, “Heterocycle derivatives having TrkA inhibitory activity” (Shionogi & Co., Ltd., priority 2015, dated 2020)

target: human TrkA (Homo sapiens (Human), UniProt P04629); test: Human TrkA inhibition assay (Test Example 2); type: biochemical; settings: Table 152, human TrkA inhibition; read-out: IC50_nM
Method in brief: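 Mobility-shift readout of phosphorylated versus unphosphorylated fluorescent peptide gave conversion ratio, normalized to DMSO and no-enzyme wells; IC50 by logistic fit of 10- or 15-point 3-fold dilutions. Conditions: 1 nmol/L enzyme, 15 min compound preincubation, then 500 μmol/L ATP plus 1.5 μmol/L peptide, 120 min, 37 °C.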

human TrkA, sequence (P04629 440-796): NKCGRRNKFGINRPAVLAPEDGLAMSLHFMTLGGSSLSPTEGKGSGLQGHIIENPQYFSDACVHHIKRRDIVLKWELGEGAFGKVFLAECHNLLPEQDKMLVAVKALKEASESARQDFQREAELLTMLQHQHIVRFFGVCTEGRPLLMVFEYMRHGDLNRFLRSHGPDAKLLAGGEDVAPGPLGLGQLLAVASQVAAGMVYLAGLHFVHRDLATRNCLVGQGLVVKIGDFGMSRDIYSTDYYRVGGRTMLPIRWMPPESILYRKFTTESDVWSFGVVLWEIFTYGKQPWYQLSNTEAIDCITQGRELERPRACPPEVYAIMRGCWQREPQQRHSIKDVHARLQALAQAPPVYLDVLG

| SMILES | IC50 |
| --- | --- |
| COCCC1C[C@@H](NC(=O)Nc2c(C)c(-c3ccc4c(cnn4C)c3)nn2-c2ccccc2)[C@H](c2ccccc2)O1 (stereo partly drawn) [Compound I-11] | < 0.1 µM |
| COCCC1C[C@@H](NC(=O)Nc2c(C)c(-c3ccc(C(=O)OC(C)(C)C)cc3)nn2-c2ccccc2)[C@H](c2ccccc2)O1 (stereo partly drawn) [Compound I-13] | < 0.1 µM |
| COCCC1C[C@@H](NC(=O)Nc2c(C)c(-c3ccc(OCc4ccccc4)nc3)nn2-c2ccccc2)[C@H](c2ccccc2)O1 (stereo partly drawn) [Compound I-14] | < 0.1 µM |

The next lines start with the values.

| IC50 | SMILES |
| --- | --- |
| < 0.1 µM | COCCC1C[C@@H](NC(=O)Nc2c(C)c(-c3ccc(C(=O)O)cc3)nn2-c2ccccc2)[C@H](c2ccccc2)O1 (stereo partly drawn) [Compound I-15] |
| < 0.1 µM | COCCC1C[C@@H](NC(=O)Nc2c(C)c(-c3cnn(C)c3)nn2-c2ccccc2)[C@H](c2ccccc2)O1 (stereo partly drawn) [Compound I-16] |
| > 1 µM | COCCC1C[C@H](NC(=O)Nc2c(C)c(-c3cnn(C)c3)nn2-c2ccccc2)[C@@H](c2ccccc2)O1 (stereo partly drawn) [Compound I-17] |
| < 0.1 µM | COCCC1C[C@@H](NC(=O)Nc2c(C)c(-c3ccc(=O)[nH]c3)nn2-c2ccccc2)[C@H](c2ccccc2)O1 (stereo partly drawn) [Compound I-18] |
| < 0.1 µM | COCCC1C[C@@H](NC(=O)Nc2c(C)c(C3=CCN(C(=O)OC(C)(C)C)CC3)nn2-c2ccccc2)[C@H](c2ccccc2)O1 (stereo partly drawn) [Compound I-20] |
| < 0.1 µM | COCCC1C[C@@H](NC(=O)Nc2c(C)c(C3=CCNCC3)nn2-c2ccccc2)[C@H](c2ccccc2)O1 (stereo partly drawn) [Compound I-21] |
| > 1 µM | COCC[C@H]1C[C@H](NC(=O)Nc2c(C)c(-c3cnn(C)c3)nn2-c2ccccc2)[C@@H](c2ccc(F)c(F)c2)O1 [Compound I-24] |
| > 1 µM | COCCN1C[C@H](NC(=O)Nc2c(C)c(C3=CCN(C(C)=O)CC3)nn2-c2ccccc2)[C@@H](c2ccc(F)c(F)c2)O1 [Compound I-38] |

same assay, conditions: Table 153, human TrkA inhibition; read-out: IC50

| SMILES | IC50 |
| --- | --- |
| COCCN1C[C@H](NC(=O)Nc2c(C)c(OCC(C)(C)O)nn2-c2ccccc2)[C@@H](c2cnc(F)c(F)c2)O1 [Compound I-83] | > 1 µM |
| COCCC1C[C@@H](NC(=O)Nc2c(C)c(-c3cnc4c(cnn4C)c3)nn2-c2ccccc2)[C@H](c2ccccc2)O1 (stereo partly drawn) [Compound I-98] | < 0.1 µM |
| COCCN1C[C@@H](NC(=O)Nc2c(C)c(-c3cnc(OC)c(C(=O)N[C@@H]4CCOC4)c3)nn2-c2ccccc2)[C@H](c2ccnc(F)c2)O1 [Compound I-113] | < 0.1 µM |
| COCCN1C[C@@H](NC(=O)Nc2c(C)c(-c3cnc4c(c3)c(CO)nn4C)nn2-c2ccccc2)[C@H](c2cnc(F)c(F)c2)O1 [Compound I-128] | < 0.1 µM |
| CCOc1ncc(-c2nn(-c3ccccc3)c(NC(=O)N[C@H]3CN(CCOC)O[C@@H]3c3ccnc(F)c3)c2C)cn1 [Compound I-130] | > 1 µM |
| COCCN1C[C@@H](NC(=O)Nc2c(C)c(-c3cnc(N(C)C)nc3)nn2-c2ccccc2)[C@H](c2cnc(F)c(F)c2)O1 [Compound I-133] | < 0.1 µM |
| COCCN1C[C@@H](NC(=O)Nc2c(C)c(-c3cnc(C(=O)N[C@@H]4CCOC4)c(C)c3)nn2-c2ccccc2)[C@H](c2ccnc(F)c2)O1 [Compound I-172] | < 0.1 µM |

Results, then the compound that gave them:

| IC50 | SMILES |
| --- | --- |
| 0.1 to 1 µM | COCC[C@H]1C[C@H](NC(=O)Nc2c(C)c(C3=CCN(C(=O)CO)CC3)nn2-c2ccccc2)[C@@H](c2ccc(F)c(F)c2)O1 [Compound I-58] |
| < 0.1 µM | COCC[C@@H]1C[C@@H](NC(=O)Nc2c(C)c(C3=CCN(C(=O)CO)CC3)nn2-c2ccccc2)[C@H](c2ccc(F)c(F)c2)O1 [Compound I-59] |

same assay, conditions: Table 154, human TrkA inhibition; read-out: IC50

| IC50 | SMILES |
| --- | --- |
| < 0.1 µM | COCCN1C[C@@H](NC(=O)Nc2c(C)c(-c3cnc(OC)c(C(N)=O)c3)nn2-c2ccccc2)[C@H](c2cnc(F)c(F)c2)O1 [Compound I-180] |
| < 0.1 µM | COCCN1C[C@@H](NC(=O)Nc2c(C)c(-c3ccc(N=S(C)(C)=O)nc3)nn2-c2ccccc2)[C@H](c2ccc(F)c(F)c2)O1 [Compound I-186] |
| < 0.1 µM | CNC(=O)c1cc(-c2nn(-c3ccccc3)c(NC(=O)N[C@@H]3CN(CCOC)O[C@H]3c3ccnc(F)c3)c2C)cnc1OC [Compound I-191] |

same assay, conditions: Table 156, human TrkA inhibition; read-out: IC50

| IC50 | SMILES |
| --- | --- |
| < 0.1 µM | COCCN1C[C@@H](NC(=O)Nc2c(C)c(OCC3CNCCO3)nn2-c2ccccc2)[C@H](c2ccc(F)c(F)c2)O1 (single isomer, unassigned) [Compound I-575] |
| < 0.1 µM | COCCN1C[C@@H](NC(=O)Nc2c(C)c(OCC3CNCCO3)nn2-c2ccccc2)[C@H](c2ccc(F)c(F)c2)O1 (single isomer, unassigned) [Compound I-576] |
| < 0.1 µM | COCCN1C[C@@H](NC(=O)Nc2c(C)c(OCC3CN(C(C)=O)CCO3)nn2-c2ccccc2)[C@H](c2ccc(F)c(F)c2)O1 (single isomer, unassigned) [Compound I-577] |
| < 0.1 µM | COCCN1C[C@@H](NC(=O)Nc2c(C)c(OCC3CN(C(C)=O)CCO3)nn2-c2ccccc2)[C@H](c2ccc(F)c(F)c2)O1 (single isomer, unassigned) [Compound I-578] |
| < 0.1 µM | COCCN1C[C@@H](NC(=O)Nc2c(C)c(OCC3CN(C)CCO3)nn2-c2ccccc2)[C@H](c2ccc(F)c(F)c2)O1 (single isomer, unassigned) [Compound I-579] |

same assay, conditions: Table 157, human TrkA inhibition; read-out: IC50

| SMILES | IC50 |
| --- | --- |
| CCN1C[C@@H](NC(=O)Nc2c(C)c(OCC3CNC3)nn2-c2ccccc2)[C@H](c2ccc(F)c(F)c2)O1 (racemic) [Compound I-657] | < 0.1 µM |
| CCN1C[C@@H](NC(=O)Nc2c(C)c(OCCCCN(C)C)nn2-c2ccccc2)[C@H](c2ccc(F)c(F)c2)O1 (racemic) [Compound I-662] | < 0.1 µM |
| CCN1C[C@@H](NC(=O)Nc2c(C)c(OCCCC(=O)NCCN(C)C)nn2-c2ccccc2)[C@H](c2ccc(F)c(F)c2)O1 (racemic) [Compound I-667] | < 0.1 µM |
| CCN1C[C@@H](NC(=O)Nc2c(C)c(OCCCC(=O)NCCO)nn2-c2ccccc2)[C@H](c2ccc(F)c(F)c2)O1 (racemic) [Compound I-668] | < 0.1 µM |
| CCN1C[C@@H](NC(=O)Nc2c(C)c(OCCCC(=O)NCC(C)(C)O)nn2-c2ccccc2)[C@H](c2ccc(F)c(F)c2)O1 (racemic) [Compound I-669] | < 0.1 µM |
| CCN1C[C@@H](NC(=O)Nc2c(C)c(OCCC3CCNCC3)nn2-c2ccccc2)[C@H](c2ccc(F)c(F)c2)O1 (racemic) [Compound I-671] | < 0.1 µM |
| COCCN1C[C@@H](NC(=O)Nc2c(C(F)F)c(C)nn2-c2ccccc2)[C@H](c2ccnc(F)c2)O1 (racemic) [Compound I-673] | 0.1 to 1 µM |
| CCCN1C[C@@H](NC(=O)Nc2c(C)c(-c3cnc(OC)nc3)nn2-c2ccccc2)[C@H](c2ccc(F)c(F)c2)O1 (racemic) [Compound I-676] | < 0.1 µM |
| CCCCN1C[C@@H](NC(=O)Nc2c(C)c(-c3cnc(OC)nc3)nn2-c2ccccc2)[C@H](c2ccc(F)c(F)c2)O1 (racemic) [Compound I-677] | < 0.1 µM |

The next lines start with the values.

| IC50 | SMILES |
| --- | --- |
| < 0.1 µM | CCN1C[C@@H](NC(=O)Nc2c(C)c(OCC3CN(C)C3)nn2-c2ccccc2)[C@H](c2ccc(F)c(F)c2)O1 (racemic) [Compound I-658] |
| < 0.1 µM | CCN1C[C@@H](NC(=O)Nc2c(C)c(OCCCC(=O)NC)nn2-c2ccccc2)[C@H](c2ccc(F)c(F)c2)O1 (racemic) [Compound I-659] |
| < 0.1 µM | CCN1C[C@@H](NC(=O)Nc2c(C)c(OCCCN3CCCC3)nn2-c2ccccc2)[C@H](c2ccc(F)c(F)c2)O1 (racemic) [Compound I-661] |
| < 0.1 µM | CCN1C[C@@H](NC(=O)Nc2c(C)c(OCCCC(N)=O)nn2-c2ccccc2)[C@H](c2ccc(F)c(F)c2)O1 (racemic) [Compound I-663] |
| < 0.1 µM | CCN1C[C@@H](NC(=O)Nc2c(C)c(OCCCC(=O)N(C)C)nn2-c2ccccc2)[C@H](c2ccc(F)c(F)c2)O1 (racemic) [Compound I-664] |
| < 0.1 µM | CCN1C[C@@H](NC(=O)Nc2c(C)c(OCCCC(=O)NC3CC3)nn2-c2ccccc2)[C@H](c2ccc(F)c(F)c2)O1 (racemic) [Compound I-665] |
| < 0.1 µM | CCN1C[C@@H](NC(=O)Nc2c(C)c(OCCCC(=O)N3CCN(C)CC3)nn2-c2ccccc2)[C@H](c2ccc(F)c(F)c2)O1 (racemic) [Compound I-666] |
| < 0.1 µM | CCN1C[C@@H](NC(=O)Nc2c(C)c(OCCCCO)nn2-c2ccccc2)[C@H](c2ccc(F)c(F)c2)O1 (racemic) [Compound I-670] |
| < 0.1 µM | CCN1C[C@@H](NC(=O)Nc2c(C)c(OCCC3CCN(C)CC3)nn2-c2ccccc2)[C@H](c2ccc(F)c(F)c2)O1 (racemic) [Compound I-672] |
| 0.1 to 1 µM | COc1ncc(-c2nn(-c3ccccc3)c(NC(=O)N[C@@H]3CN(CCCO)O[C@H]3c3ccc(F)c(F)c3)c2C)cn1 (racemic) [Compound I-678] |

same assay, conditions: human TrkA 1 nmol/L, ATP 500 μmol/L, 120 min at 37° C.; read-out: IC50 values (TrkA phosphorylation inhibition)

| SMILES | IC50 |
| --- | --- |
| COCCN1C[C@@H](NC(=O)Nc2c(C(F)(F)F)c(C)nn2-c2ccccc2)[C@H](c2ccnc(F)c2)O1 (racemic) [Compound I-660] | 0.07 µM |
| COCCN1C[C@@H](NC(=O)Nc2c(Cl)c(-c3cnc(OC)nc3)nn2-c2ccccc2)[C@H](c2ccnc(F)c2)O1 (racemic) [Compound I-674] | 0.0058 µM |
| COCCN1C[C@@H](NC(=O)Nc2c(C)c(-c3cnc4c(cnn4C)c3)nn2-c2ccccc2)[C@H](c2ccnc(F)c2)O1 [Compound I-65] | 0.00092 µM |
| COCCN1C[C@@H](NC(=O)Nc2c(C)c(OCC(C)(C)O)nn2-c2ccccc2)[C@H](c2cnc(F)c(F)c2)O1 [Compound I-82] | 0.022 µM |
| CNc1ncc(-c2nn(-c3ccccc3)c(NC(=O)N[C@@H]3CN(CCOC)O[C@H]3c3cnc(F)c(F)c3)c2C)cn1 [Compound I-135] | 0.00052 µM |

Second part, the compound after the results:

| IC50 | SMILES |
| --- | --- |
| 0.0029 µM | COCC[C@@H]1C[C@@H](NC(=O)Nc2c(C)c(-c3cnn(C)c3)nn2-c2ccccc2)[C@H](c2ccc(F)c(F)c2)O1 [Compound I-25] |
| 0.00048 µM | COCCN1C[C@@H](NC(=O)Nc2c(C)c(C3=CCN(C(C)=O)CC3)nn2-c2ccccc2)[C@H](c2ccc(F)c(F)c2)O1 [Compound I-39] |
